The target of test [1] is recombinant human EGFR exon 19 deletion/C797S double mutant protein (Homo sapiens (Human), UniProt P00533, C797S/DEL746-750). Nature of the test: Biological Activity Assay C: biochemical assay against EGFR exon 19 deletion/C797S protein (EGFR d19/CS). In short, it runs like this:
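IC50 values were fitted with a 4-parameter model to reaction slopes taken from 90 kinetic reads spaced 120 s apart. The Phosphosens sensor/ATP working solution was 40 uM/4 mM, and compound was dosed as 16-point dilutions at 2.5% final DMSO.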

A further test deals with BaF3_EGFR LR/CS cells. Nature of the test: Biological Activity Assay D: BaF3 cell proliferation assay, EGFR L858R/C797S mutant (BaF3 LR/CS). The class given is cell-based. The note with it: Ba/F3 EGFR; BaF3_EGFR LR/CS cells, ~72 hours, CellTiter-Glo; read-out: BaF3 LR/CS IC50.
The target of test [2] is recombinant human EGFR L858R/C797S double mutant protein (Homo sapiens (Human), UniProt P00533, C797S/L858R). The experiment in a line: Biological Activity Assay B: biochemical assay against EGFR L858R/C797S protein (EGFR LR/CS). On the procedure:
In Row A of a 384-well polypropylene plate, was added 48 μL of DMSO. In wells A1 and A24, were added 12 μL of DMSO. […] To a well in Row A were added 12 μL of each 10 mM test compound stock (100% DMSO). […] The final intermediate dilution plate contained 4×16-point compound serial dilutions in assay buffer. The DMSO concentration was 10%. The intermediate compound dilution plate was transferred to the Bravo and the “5 uL dispense into ARP.pro” protocol was run. To the black low volume assay ready plates, were added 5 μL of 40 uM Phosphosens peptide sensor/4 mM ATP working solution to each well. […] To column 24, was added 10 μL of assay buffer. The final DMSO concentration was 2.5%. […] The plates were sealed with the TopSeal-A Plus plate seals. […] Set for 90 cycles with 120 second interval. […] The slope of each curve was constructed using Dotmatics in each well, and each IC50s was calculated using a 4-parameter fit model.

The test system of the next test is Ba/F3_EGFR WT cells. The experiment in a line: Biological Activity Assay D: BaF3 cell proliferation assay, EGFR wild-type (BaF3 WT). In kind it is cell-based. The note with it: Ba/F3 EGFR; Ba/F3_EGFR WT cells, ~72 hours, CellTiter-Glo; read-out: BaF3 WT IC50. A general note: ATP-based viability assays read luminescence as a measure of living cells.
A further test has as its system BaF3_EGFR d19/CS cells. Nature of the test: Biological Activity Assay D: BaF3 cell proliferation assay, EGFR exon 19 deletion/C797S (BaF3 d19/CS). The class given is cell-based. As to conditions: Ba/F3 EGFR; BaF3_EGFR d19/CS cells, ~72 hours, CellTiter-Glo; read-out: BaF3 d19/CS IC50.

Bounds are passed on as bounds.

recombinant human EGFR L858R/C797S double mutant protein, sequence (P00533 25-1210 C797S/L858R): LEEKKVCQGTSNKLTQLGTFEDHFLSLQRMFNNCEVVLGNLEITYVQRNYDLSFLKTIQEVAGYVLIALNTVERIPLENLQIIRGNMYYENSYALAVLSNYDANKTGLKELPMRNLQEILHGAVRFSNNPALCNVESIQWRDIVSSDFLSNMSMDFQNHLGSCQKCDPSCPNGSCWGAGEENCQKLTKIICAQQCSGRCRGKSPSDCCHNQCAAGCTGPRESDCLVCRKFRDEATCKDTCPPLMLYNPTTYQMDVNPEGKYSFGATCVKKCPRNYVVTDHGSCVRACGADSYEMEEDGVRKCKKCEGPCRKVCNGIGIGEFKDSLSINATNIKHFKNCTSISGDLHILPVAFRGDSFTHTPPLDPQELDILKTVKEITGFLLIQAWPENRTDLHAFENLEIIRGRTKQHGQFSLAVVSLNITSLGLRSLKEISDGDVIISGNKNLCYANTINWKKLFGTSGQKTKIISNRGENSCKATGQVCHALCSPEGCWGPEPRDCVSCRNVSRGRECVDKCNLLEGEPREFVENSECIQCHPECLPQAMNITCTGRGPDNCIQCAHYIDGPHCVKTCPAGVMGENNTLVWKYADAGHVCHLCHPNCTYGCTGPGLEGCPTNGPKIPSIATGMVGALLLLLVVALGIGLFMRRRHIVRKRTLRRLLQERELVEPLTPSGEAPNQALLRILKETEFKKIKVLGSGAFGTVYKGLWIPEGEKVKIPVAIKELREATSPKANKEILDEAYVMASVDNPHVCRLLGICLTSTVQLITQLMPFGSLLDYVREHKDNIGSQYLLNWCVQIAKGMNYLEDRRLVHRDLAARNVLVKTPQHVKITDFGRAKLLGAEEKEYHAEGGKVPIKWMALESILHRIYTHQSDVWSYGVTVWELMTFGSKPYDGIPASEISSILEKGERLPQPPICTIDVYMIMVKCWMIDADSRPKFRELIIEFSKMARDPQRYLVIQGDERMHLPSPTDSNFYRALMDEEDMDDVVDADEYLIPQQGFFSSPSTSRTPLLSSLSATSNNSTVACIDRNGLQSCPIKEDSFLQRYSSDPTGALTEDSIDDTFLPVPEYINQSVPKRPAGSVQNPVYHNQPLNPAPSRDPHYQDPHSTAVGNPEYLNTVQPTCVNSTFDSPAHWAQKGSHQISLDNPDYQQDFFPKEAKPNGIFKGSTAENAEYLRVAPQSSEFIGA
recombinant human EGFR exon 19 deletion/C797S double mutant protein, sequence (P00533 other isoform, or with tags, fused parts or gaps C797S/del 1-668/del 746-750 limits assumed): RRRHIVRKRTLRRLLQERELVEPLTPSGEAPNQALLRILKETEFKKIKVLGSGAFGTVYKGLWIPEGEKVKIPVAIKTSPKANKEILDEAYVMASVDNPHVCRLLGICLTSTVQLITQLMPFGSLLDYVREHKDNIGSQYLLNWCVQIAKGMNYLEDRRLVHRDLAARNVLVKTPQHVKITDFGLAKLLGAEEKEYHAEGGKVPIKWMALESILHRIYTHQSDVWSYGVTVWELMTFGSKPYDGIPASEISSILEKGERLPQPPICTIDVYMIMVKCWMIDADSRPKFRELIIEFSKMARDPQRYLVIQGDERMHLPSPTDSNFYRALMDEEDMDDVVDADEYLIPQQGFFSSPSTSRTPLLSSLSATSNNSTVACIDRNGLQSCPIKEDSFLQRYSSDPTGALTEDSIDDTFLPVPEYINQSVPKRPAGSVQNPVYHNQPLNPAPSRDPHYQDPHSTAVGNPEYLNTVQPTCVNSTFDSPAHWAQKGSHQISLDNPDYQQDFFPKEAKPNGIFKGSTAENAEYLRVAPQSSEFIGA

As for `O=S1(=O)CCC[C@H](n2cc(-c3ncnc4oc(-c5ccccc5)cc34)c(-c3ccc(F)cc3)n2)C1` (single isomer, unassigned) [Example 100], the IC50 stood at 4.23 nM in test [1]; 407 nM in the test on BaF3_EGFR LR/CS cells; 2.76 nM in test [2]; 13300 nM in the test on Ba/F3_EGFR WT cells; 319 nM in the test with BaF3_EGFR d19/CS cells.

As to `CS(=O)(=O)Cn1cc(-c2ncnc3oc(-c4ccccc4)cc23)c(-c2ccc(F)cc2)n1` [Example 79, 4-{3-(4-fluorophenyl)-1-[(methanesulfonyl)methyl]-1H-pyrazol-4-yl}-6-phenylfuro[2,3-d]pyrimidine], the IC50 in test [1] came out at 1.99 nM; with BaF3_EGFR LR/CS cells, 116 nM; in test [2], 2.64 nM; in the test on Ba/F3_EGFR WT cells it was 10200 nM; in the test with BaF3_EGFR d19/CS cells, 111 nM.

Consider `CS(=O)(=O)n1cc(-c2ncnc3oc(-c4ccccc4)cc23)c(-c2ccc(F)cc2)n1` [Example 39, 4-[3-(4-fluorophenyl)-1-(methanesulfonyl)-1H-pyrazol-4-yl]-6-phenylfuro[2,3-d]pyrimidine], for which the IC50 was 5.19 nM in test [1]; 161 nM in the test with BaF3_EGFR LR/CS cells; 6.14 nM in test [2]; 1920 nM with Ba/F3_EGFR WT cells; 147 nM in the test with BaF3_EGFR d19/CS cells.

`CN1CC=C(c2cc3c(-c4cn(CCCO)nc4-c4ccc(F)cc4)ccnc3[nH]2)CC1` [Example 14, 3-{3-(4-Fluorophenyl)-4-[2-(1-methyl-1,2,3,6-tetrahydropyridin-4-yl)-1H-pyrrolo[2,3-b]pyridin-4-yl]-1H-pyrazol-1-yl}propan-1-ol]: the IC50 was 3.3 nM in test [1]; 120 nM with BaF3_EGFR LR/CS cells; 7.58 nM in test [2]; 1350 nM in the test with Ba/F3_EGFR WT cells; 113 nM in the test on BaF3_EGFR d19/CS cells.

With `CN1CCN(c2ccc(-c3nc4c(-c5cn(CCCO)nc5-c5ccc(F)cc5)ccnc4[nH]3)cc2)CC1` [Example 13, 3-[3-(4-Fluorophenyl)-4-{2-[4-(4-methylpiperazin-1-yl)phenyl]-3H-imidazo[4,5-b]pyridin-7-yl}-1H-pyrazol-1-yl]propan-1-ol], the IC50 in test [1] was found to be 0.173 nM; in the test on BaF3_EGFR LR/CS cells, 4.1 nM; in test [2] it was 0.272 nM; in the test with Ba/F3_EGFR WT cells, 255 nM; with BaF3_EGFR d19/CS cells it was 3.71 nM.

Consider `Fc1ccc(-c2nn(CCCC(F)F)cc2-c2ncnc3oc(-c4ccccc4)nc23)cc1` [Example 26, 7-[1-(4,4-difluorobutyl)-3-(4-fluorophenyl)-1H-pyrazol-4-yl]-2-phenyl[1,3]oxazolo[5,4-d]pyrimidine], for which the IC50 in test [1] turned out to be 4.22 nM; in the test with BaF3_EGFR LR/CS cells, 562 nM; in test [2] it was 4.06 nM; in the test on Ba/F3_EGFR WT cells it was 6410 nM; with BaF3_EGFR d19/CS cells, 486 nM.

On to `Fc1ccc(-c2nn(C3COC3)nc2-c2ncnc3oc(-c4ccccc4)cc23)cc1` [Example 81, 4-[5-(4-fluorophenyl)-2-(oxetan-3-yl)-2H-1,2,3-triazol-4-yl]-6-phenylfuro[2,3-d]pyrimidine], for which the IC50 is 1.12 nM in test [1]; 241 nM in the test with BaF3_EGFR LR/CS cells; 2.58 nM in test [2]; 13500 nM in the test on Ba/F3_EGFR WT cells; 330 nM in the test on BaF3_EGFR d19/CS cells.

For `NC(=O)CCn1cc(-c2ncnc3oc(-c4ccccc4)cc23)c(-c2ccc(F)cc2)n1` [Example 118, 3-[3-(4-Fluorophenyl)-4-(6-phenylfuro[2,3-d]pyrimidin-4-yl)-1H-pyrazol-1-yl]propanamide], the IC50 in test [1] was 0.25 nM; with BaF3_EGFR LR/CS cells, 38.3 nM; in test [2], 0.56 nM; in the test on Ba/F3_EGFR WT cells, 1020 nM; with BaF3_EGFR d19/CS cells it was 50.5 nM.

In the case of `O=S1(=O)CC[C@@H](Cn2cc(-c3ncnc4oc(-c5ccccc5)cc34)c(-c3ccc(F)cc3)n2)C1` (single isomer, unassigned) [Example 97], the IC50 in test [1] is 0.34 nM; with BaF3_EGFR LR/CS cells it was 39.2 nM; in test [2], 0.33 nM; with Ba/F3_EGFR WT cells it was 1190 nM; in the test on BaF3_EGFR d19/CS cells it was 79.4 nM.

As to `Fc1ccc(-c2nn(CCCC(F)F)cc2-c2ncnc3oc(-c4ccccc4)cc23)cc1` [Example 45, 4-[1-(4,4-Difluorobutyl)-3-(4-fluorophenyl)-1H-pyrazol-4-yl]-6-phenylfuro[2,3-d]pyrimidine], the IC50 in test [1] was 1.51 nM; in the test on BaF3_EGFR LR/CS cells, 185 nM; in test [2] it was 1.12 nM; in the test on Ba/F3_EGFR WT cells it was 2290 nM; in the test with BaF3_EGFR d19/CS cells, 37.5 nM.

As to `CN1CCN(c2ccc(-c3nc4c(-c5cn(CCCO)nc5-c5ccc(F)cc5)ncnc4o3)cc2)CC1` [Example 10, 3-[3-(4-Fluorophenyl)-4-{2-[4-(4-methylpiperazin-1-yl)phenyl][1,3]oxazolo[5,4-d]pyrimidin-7-yl}-1H-pyrazol-1-yl]propan-1-ol], the IC50 in test [1] came to 0.113 nM; in the test with BaF3_EGFR LR/CS cells, 1.63 nM; in test [2], 0.152 nM; with Ba/F3_EGFR WT cells, 74 nM; in the test with BaF3_EGFR d19/CS cells, 1.31 nM.

On to `Fc1ccc(-c2nn([C@H]3CCOC3)cc2-c2ncnc3oc(-c4ccccc4)cc23)cc1` (single isomer, unassigned) [Example 91], for which the IC50 amounted to 0.23 nM in test [1]; 23.8 nM in the test on BaF3_EGFR LR/CS cells; 0.37 nM in test [2]; 1280 nM with Ba/F3_EGFR WT cells; 39.9 nM in the test with BaF3_EGFR d19/CS cells.

For `CC(C)(O)CCn1cc(-c2ncnc3sc(-c4ccccc4)cc23)c(-c2ccc(F)cc2)n1` [Example 67, 4-[3-(4-fluorophenyl)-4-(6-phenylthieno[2,3-d]pyrimidin-4-yl)-1H-pyrazol-1-yl]-2-methylbutan-2-ol], the IC50 in test [1] came to 18.6 nM; with BaF3_EGFR LR/CS cells, 1630 nM; in test [2], 15.6 nM; with Ba/F3_EGFR WT cells it was 8040 nM; in the test with BaF3_EGFR d19/CS cells, 1050 nM.

With `O[C@H]1C[C@H](Cn2cc(-c3ncnc4oc(-c5ccccc5)cc34)c(-c3ccc(F)cc3)n2)C1` [Example 43, (1r,3r)-3-{[3-(4-Fluorophenyl)-4-(6-phenylfuro[2,3-d]pyrimidin-4-yl)-1H-pyrazol-1-yl]methyl}cyclobutan-1-ol], the IC50 in test [1] is 0.24 nM; in the test with BaF3_EGFR LR/CS cells, 73.2 nM; in test [2] it was 0.39 nM; with Ba/F3_EGFR WT cells it was 2240 nM; in the test with BaF3_EGFR d19/CS cells, 40 nM.

Consider `O=S1(=O)CCCC(Cn2cc(-c3ncnc4oc(-c5ccccc5)cc34)c(-c3ccc(F)cc3)n2)C1` (racemic) [Example 115, 3-{[3-(4-Fluorophenyl)-4-(6-phenylfuro[2,3-d]pyrimidin-4-yl)-1H-pyrazol-1-yl]methyl}-1λ6-thiane-1,1-dione], for which the IC50 stood at 0.31 nM in test [1]; 31.6 nM in the test with BaF3_EGFR LR/CS cells; 0.41 nM in test [2]; 703 nM in the test on Ba/F3_EGFR WT cells; 110 nM with BaF3_EGFR d19/CS cells.

Regarding `N#Cc1c(-c2ccc(F)cc2)c(-c2ccnc3[nH]c(-c4ccccc4)cc23)nn1CCCO` [Example 16, 4-(4-Fluorophenyl)-1-(3-hydroxypropyl)-3-(2-phenyl-1H-pyrrolo[2,3-b]pyridin-4-yl)-1H-pyrazole-5-carbonitrile], the IC50 was 1.57 nM in test [1]; 4.38 nM in the test with BaF3_EGFR LR/CS cells; 1.47 nM in test [2]; 816 nM in the test on Ba/F3_EGFR WT cells; 3.39 nM in the test with BaF3_EGFR d19/CS cells.

On to `CC(C)(O)CCc1nc(-c2ccc(F)cc2)c(-c2ncnc3sc(-c4ccccc4)cc23)o1` [Example 66, 4-[4-(4-fluorophenyl)-5-(6-phenylthieno[2,3-d]pyrimidin-4-yl)-1,3-oxazol-2-yl]-2-methylbutan-2-ol], for which the IC50 in test [1] was 8.12 nM; in the test with BaF3_EGFR LR/CS cells it was 2690 nM; in test [2], 14.5 nM; in the test with Ba/F3_EGFR WT cells, over 20000 nM; in the test with BaF3_EGFR d19/CS cells, 1290 nM.

Consider `CC(C)(O)CCn1cc(-c2ncnc3oc(-c4ccccc4)nc23)c(-c2ccc(F)cc2)n1` [Example 21, 4-[3-(4-Fluorophenyl)-4-(2-phenyl[1,3]oxazolo[5,4-d]pyrimidin-7-yl)-1H-pyrazol-1-yl]-2-methylbutan-2-ol], for which the IC50 in test [1] was 5.47 nM; in the test with BaF3_EGFR LR/CS cells, 375 nM; in test [2], 5.2 nM; with Ba/F3_EGFR WT cells, 18500 nM; with BaF3_EGFR d19/CS cells, 539 nM.

For the molecule `Fc1ccc(-c2nn(CC3CCO3)cc2-c2ncnc3oc(-c4ccccc4)cc23)cc1` (centres unmarked) [Example 69, 4-{3-(4-Fluorophenyl)-1-[(oxetan-2-yl)methyl]-1H-pyrazol-4-yl}-6-phenylfuro[2,3-d]pyrimidine], the IC50 in test [1] worked out at 0.378 nM; in the test on BaF3_EGFR LR/CS cells it was 40.2 nM; in test [2], 0.452 nM; in the test on Ba/F3_EGFR WT cells, 2340 nM; in the test on BaF3_EGFR d19/CS cells, 68.6 nM.
